Laboratory results taken from patent US20090123389A1, “Methods for modulating Th17 cell development in the treatment and prevention of cellulite” (priority 2007, published 2009).
Several values for one entry are separate records, joined by “and”; a condition that tells them apart may be missing. Identical values can stand only once.

Legend:
[1] = test system: CD4+ CD25− T cells; assay: Foxp3 (Treg marker) expression in TGFβ/IL-6 treated T cells; format: cell-based, mouse
Protocol: Low doses of halofuginone (HF) were tested to determine the ability of HF to enhance Treg differentiation, while suppressing Th17 differentiation. Naïve CD4+ T cells (CD4+ CD25−) were isolated from the spleen and peripheral lymph nodes of C57B/6 mice. T cells were then activated using anti-CD3 (0.3 μg/ml) and anti-CD28 (0.5 μg/ml) antibodies either in media alone (row 1, 4), TGFβ alone (3 ng/ml—row 2, 5) or TGFβ (3 ng/ml) plus IL-6 (30 ng/ml) (row 3, 6). […] T cells were cultured for 3 days and CD25 and Foxp3 expression (Treg marker genes) was determine by FACS staining and flow cytometric analyses. Simultaneously, T cells were harvested and re-stimulated for 4 hours using phorbol myristic acetate (PMA; 10 nM), Ionomycin (1 μM) and cytokine secretion was prevented using brefeldin A (20 μg/ml). Following stimulation, the production of IL-17 and IFNγ were determined by intracellular staining and analyzed via flow cytometry. […]
FACS analyses and sorting: All cell surface staining was performed in FACS buffer (PBS/2% FCS/0.1% NaN3) and antibodies were incubated with cells on ice for 20-30 minutes. […] All FACS data was acquired on a FACSCalibur flow cytometer (BD Pharmingen) and analyzed using FlowJo software (Treestar, Inc., Ashland, Oreg.). […]

[2] = test system: B220+ B cells or CD8+ T cells; assay: B cell and CD8+ T cell proliferation and function; format: cell-based, mouse; conditions: HF 1.25-40 nM titrated
Protocol: The non-specific effects of HF on B and CD8+ T cells were evaluated. B220+B cells or CD8+ T cells were isolated from the spleen and peripheral lymph nodes of C57B/6 mice. B cell proliferation and IL-6 production was induced by culturing the cells with LPS (0.5 μg/ml) for 4 days. The effects of HF on B cell function was determined by adding titrating amounts of HF (1.25 nM-40 nM) at the time of LPS stimulation. B cell proliferation was monitored by labeling cells with Carboxyfluorescein diacetate, succinimidyl ester (CFSE; 5 μM) prior to LPS stimulation and determining the rate of CFSE dilution after 4 days by flow cytometric analyses. LPS-induced IL-6 production by B cells was determined by intracellular staining on day 4, following PMA+Ionomycin+Brefeldin A re-stimulation as described above. For CD8+ T cell experiments, purified CD8+ T cells were labeled with CFSE as above and the T cells were activated using anti-CD3 (1 μg/ml) and anti-CD28 (1 μg/ml) antibodies. […] CD8+ T cell proliferation was determined by monitoring CFSE dilution on day 3-post activation; CD25 expression was determined by FACS staining on day 2 of culture; differentiation of CD8+ T cells into cytolytic T cells (CTL) was evaluated on day 4 by determining expression of IFNγ and granzyme B following PMA+Ionomycin+Brefeldin A re-stimulation. […]

O=C(CC1NCCCC1O)Cn1cnc2cc(Br)c(Cl)cc2c1=O (racemic) [HF, 7-bromo-6-chloro-3-[3-(3-hydroxy-2-piperidinyl)-2-oxopropyl]-4(3H)-quinazolinone]
Foxp3 expression of T cells differentiated in the presence of HF ([1]; 10 nM HF, TGFβ plus IL-6, day 3): enhanced Foxp3 expression
HF concentration that increased expression of the Treg marker FoxP3 ([1]; TGFβ/IL-6 treated T-cells, 3 days): 2.5 to 10 nM and 2.2 to 10 nM
doses at which B and CD8+ T cell proliferation and function were profoundly impaired [2]: greater than 20 nM
doses with little or no effect on B and CD8+ T cell function or proliferation [2]: lower than 10 nM
